The text below walks through data of PMC5532363, “Synergistic blending of high-valued heterocycles inhibits growth of Plasmodium falciparum in culture and P. berghei infection in mouse model” (Scientific Reports, 2017).

Series [1] relates to P. falciparum 3D7 (Pf3D7), CQ sensitive. In words: SYBR Green I growth inhibition assay, asynchronous P. falciparum 3D7 culture. The format is cell-based, Plasmodium falciparum. As to conditions: SYBR Green, mean of three experiments, NDR / No IC50 = no dose response. The source says:
(§1) Antimalarial activity of all the listed Pht analogues was initially assessed on asynchronous cultures of P. falciparum 3D7 (Pf3D7) clone using the SYBR Green assay. […] The mean IC50 values are based on three separate experiments (Table 1).
(§2) The laboratory-adapted P. falciparum strains 3D7 (Africa; CQ sensitive) and W2 (Africa; CQ resistant), were acquired from Malaria Research and Reference Reagent Resource Center (MR4) (Manassas, VA, USA) and maintained with type O +ve erythrocytes suspended in continuous complete culture medium as described. Complete culture media consisted of 10.43 g/litre of RPMI 1640-HEPES supplemented with 10% (vol/vol) human AB serum, 92.6 mg/litre L-glutamine, 50 mg/liter hypoxanthine, 2 g/litre sodium bicarbonate (Sigma-Aldrich, St. Louis, MO). Incubation of cultures was at 37 °C and maintained in a low oxygen atmosphere (5% O2, 5% CO2, 90% N). The levels of parasitemia in the cultures were maintained at between 2 and 10%, with 5% hematocrit. Media was changed after every 24 hours and parasitemia monitored every 48 hours. Synchronous cultures were prepared by sorbitol lysis. Stock solutions of the Pht, Pht analogues, and DHA were prepared in absolute dimethyl sulfoxide (DMSO) while CQ was prepared in distilled water. The prepared drug stock solutions were used immediately or stored at −80 °C for not longer than one month before use. Stock solutions were further diluted in serum free RPMI 1640 media (stock solution solvent final conc. 0.05%) before performing a 2-fold serial dilution to achieve dose ranges of 0.2 µM to 100 µM (Pht and derivatives), 7.8 to 2,000 nM (CQ) and 0.17 to 87.5 nM (DHA). 25 μL of the drug diluents were aliquoted into 96 well plates and used immediately. Alternatively, the stock solutions were diluted in distilled water, 2-fold serial dilution performed on a 96 well plate and allowed to air dry in a laminar flow hood after which dried plates were stored at 4 °C until use. SYBR Green I assay technique with additional modification was used for drug susceptibility testing of the parasites. Parasite cultures of >1% parasitemia were diluted to 1% parasitemia and 2% hematocrit and 200 μL were transferred onto drug pre-dosed plates and incubated at 37 °C for 90 hours, [40]. Drug exposure was terminated by freezing the drug plates at −80 °C for 24 hours after which lysis buffer containing (per liter) 100 mM Tris-HCl, 10 mM EDTA, 0.016% Saponin, 1.6% triton X-100 and 20X SYBR Green I dye was added and the sample incubated for 2 hours in the dark. Relative fluorescence units (RFU) were read using the Perkin Elmer Wallac 1420 fluorescence plate reader, with excitation and emission wavelengths of 485 nm and 535 nm respectively. The readouts values were aligned with corresponding drug doses and analysis performed by Graph-pad Prism software. The drug concentrations (x value) were transformed using X = Log[X] and plotted against the counts (y values) and the data analysed by non-linear regression (sigmoid dose-response/variable slope equation) to yield the IC50.

The test system of the next series is CQ resistant PfW2 strain. As to the kind of experiment: SYBR Green I growth inhibition assay, P. falciparum W2 culture. The format is cell-based. As to conditions: Plasmodium falciparum.
From the text: as §1
as §2, with “Drug exposure was terminated by freezing the drug plates at −80 °C for 24 hours after which lysis buffer containing (per liter) 100 mM Tris-HCl, 10 mM EDTA, 0.016% Saponin, 1.6% triton X-100 and 20X SYBR Green I dye was added and the sample incubated for 2 hours in the dark.” left out

Series [2] concerns synchronized Pf3D7 strain cultures (rings, trophozoites). In words: Stage-specificity and parasitemia titres on synchronized Pf3D7 cultures (Giemsa smears). The format is cell-based, Plasmodium falciparum. As to conditions: for effect on ring stage parasitemia: 6 hours post exposure of ring stages; for effect on ring stage parasitemia / effect on mature blood stage parasite titres (parasitemia): Fig. 5; for effect on mature blood stage parasite titres (parasitemia): 16 hours after incubation with trophozoite stage; for effect on progression from trophozoites to schizonts / schizont morphology: concentration = individual IC50, up to 16 hours exposure; for effect on ring-stage growth and morphology: newly synchronized rings, concentration = individual IC50, monitored at 6 and 12 hours. How it is done: Next, we sought to determine stage-specificity of the antiplasmodial activity of the four active analogues (6a, 6h, 6m and 6u) on synchronized Pf3D7 strain cultures at 2% hematocrit and 1% parasitemia, with concentrations corresponding to individual drug IC50. To determine the effect of the compounds on both early and late ring stage parasites, the treatment was conducted on newly synchronized rings for 12 hours, and drug effect on parasite growth and morphology was monitored at 6 and 12 hours after exposure. Similarly, early trophozoites were exposed to each compound and incubated for 16 hours, and monitored at 6 and 16 hours post-exposure. The effect of the compounds on parasite morphology and development was compared in exposed and unexposed drug wells (Figs 3 and 4).
Figure 5 Effect of Pht analogues on parasite growth titres (Note: Graphical description of the inhibitory effect of select analogues on parasite growth titres 6 hours after incubation with ring-stages and 16 hours after drug incubation with trophozoite stage. Parasitemia percentage was derived by counting the number of infected erythrocytes from a total of 2,000 erythrocytes on Giemsa stained thin smears from each experiment. Bar diagrams represent the average of three different experiments).

Series [3] can be described thus: MTT cytotoxicity assay in U937 cells. The format is cell-based. As to conditions: human; for selectivity ratio at 24 h: U937 cells (CC50) versus 3D7 parasites (IC50), read-out: selectivity index (SI); for CC50 at 24 h: U937 cells, MTT. How it is done: As a final step in the investigational pipeline, we determined the cytotoxic effect of the four active analogues (6a, 6h, 6m and 6u) in U937 cell lines by measuring 50% cytotoxic concentrations (CC50) and calculating selectivity indices (SIs) as a measure of toxicity in human cells.
Cytotoxicity of the 4 select Pht compounds on human cells was evaluated by assessing cell viability of the U937, a human acute monocyte leukemia cell lines by use of the MTT assay. U937 was acquired from American Type Culture Collection (ATCC, Rockville, MD) and maintained in RPMI 1640 medium supplemented with 10% fetal bovine serum, and Penicillin-streptomycin (1% v/v) (Gibco, UK) at 37 °C. Robust U937 cells at a concentration of 80,000 cells/ml were plated into 96-well plates and incubated for 24 hours. Six concentrations of the Pht compounds were added in a two-fold dilution from starting concentration of 50 to 1.56 µM in triplicate and incubated with the cells for 24 hours. This was followed by addition of 10 µL MTT solution (5 mg/mL) into each well, incubated for 4 hour at 37 °C followed by addition of 50 µL DMSO to dissolve the formazan precipitate according to manufacturer’s protocol. Aliquots were drawn from each well and color intensity was measured spectrophotometrically in an ELISA plate reader (Biotek, ELx800) at 540 nm. The cell viability ratio was calculated by the following formula: % cytotoxicity = [Mean OD of test cells] − [Mean OD of control cells]/[Mean OD of control cells] × 100. Viability counts were then plotted against corresponding drug concentrations to yield cytotoxicity (CC50) through non-linear regression (sigmoid dose-response/variable slope equation). Drug CC50 values were then used to define selectivity indices, which is a measure of drug safety in human relative to parasitic cells and was calculated as the ratio of the CC50 value determined on the U937 cells (cytotoxicity) and the IC50 value determined on parasite growth inhibition 3D7 (anti-plasmodial activity). In this study, we set SI > 2 as cut-off as an indicative of low drug cytotoxicity.
(Tetrazolium assays rely on reduction of a dye to a coloured formazan, in cell work by metabolically active cells.)

[4] abbreviates: Pf3D7, asynchronous culture, read-out: IC50 (SE) µM.
The mark [5] stands for this setting: Plasmodium falciparum, 3D7, Pf3D7, asynchronous culture, read-out: IC50 (SE) µg/mL.

Read-outs that look alike come from different tables or passages of the source.

The CC50 is the concentration giving 50% cytotoxicity. As for `CC[C@@H](C)[C@H](c1nc2ccccc2n1Cc1cn(-c2ccc(F)cc2)nn1)N1C(=O)c2ccccc2C1=O` [Compound 6h], the IC50 in series [1] (Pf3D7, asynchronous culture, listed as 6 h, read-out: IC50 (SE) µM) is < 5.14 µM. In series [1] (setting [4]), the IC50 stood at 0.9 µM. The IC50 in series [1] (setting [5]) was found to be 0.7 µg/mL. The same molecule yielded an IC50 in the series on CQ resistant PfW2 strain of 1300 nM. For the same molecule, in series [2], the “effect on ring stage parasitemia” value is reported as “did not affect parasite growth”; the “effect on mature blood stage parasite titres (parasitemia)” value is “reduction in parasitemia”; the “effect on ring-stage growth and morphology” value is “did not arrest ring-stage maturation”. In addition, in series [2] (early trophozoites, concentration = individual IC50, 6 hours after exposure), the effect on trophozoites entry is recorded as “complete destruction of trophozoites”. Moreover, in series [2] (early trophozoites), the “effect on progression from trophozoites to schizonts / schizont morphology” value was “presence of schizonts with abnormal morphology”. In series [3], the selectivity ratio at 24 h is 41.2 ± 1.7 and the 50% cytotoxic concentration (CC50) at 24 h came to 28.8 ± 0.67 µM.

For the molecule `CC(C)C[C@H](c1nc2ccccc2n1Cc1c[nH]nn1)N1C(=O)c2ccccc2C1=O` [Compound 6u], the IC50 is < 5.14 µM in series [1] (Pf3D7, asynchronous culture, listed as 6 u, read-out: IC50 (SE) µM); 0.7 µM in series [1] (setting [4]); 0.3 µg/mL in series [1] (setting [5]); 900 nM in the series with CQ resistant PfW2 strain. Further, the “effect on ring stage parasitemia” value in series [2] is reported as “reduction in ring stage parasitemia”. In series [2], the “effect on mature blood stage parasite titres (parasitemia)” value is reported as “negligible”. The “effect on progression from trophozoites to schizonts / schizont morphology” value in series [2] (early trophozoites) is reported as “did not interfere with development of parasite progression from trophozoites to schizonts”. Besides, in series [2], the “effect on ring-stage growth and morphology” value was “active against ring-stage forms”. Moreover, in series [3], the selectivity ratio at 24 h came out at 2.31 ± 0.76. Further, in series [3], the half-maximal cytotoxic concentration (CC50) at 24 h is 2.08 ± 1.6 µM.
